Source: patent publication US8778871B2 (Takeda Pharmaceutical Company Limited, priority 2004, dated 2014)
Non-standard residues stand in square brackets, D forms with d. Residues, ends and D or L forms follow the SMILES beside them. *: point of attachment. Phe(4-Cl) = N[C@@H](Cc1ccc(Cl)cc1)C(=O)O; 1Nal = N[C@@H](Cc1cccc2ccccc12)C(=O)O; Arg(Me) = CNC(=N)NCCC[C@H](N)C(=O)O; Cha = N[C@@H](CC1CCCCC1)C(=O)O; X4 = NC(=S)[C@H](Cc1ccccc1)N*; azaGly = NNC(=O)O

Tests used:
hOT7T175 [1] = target: T1, hOT7T175 (Homo sapiens, UniProt Q969F8, L364H); experiment: Intracellular Ca ion level-increasing activity using FLIPR (180 seconds; specific activity to Metastin (1-54)); assay type: cell-based; settings: hOT7T175/CHO, relative to Metastin (1-54) = 1
T1 construct: expressed in transfected cells

hOT7T175 [2] = target: T1, hOT7T175; assay type: cell-based; settings: hOT7T175/CHO, FLIPR, evaluation for 40 seconds after initiation of the reaction
Protocol: The intracellular Ca ion level-increasing activity was measured using FLIPR as in TEST EXAMPLE 2.

T1 sequence (Q969F8 whole entry L364H): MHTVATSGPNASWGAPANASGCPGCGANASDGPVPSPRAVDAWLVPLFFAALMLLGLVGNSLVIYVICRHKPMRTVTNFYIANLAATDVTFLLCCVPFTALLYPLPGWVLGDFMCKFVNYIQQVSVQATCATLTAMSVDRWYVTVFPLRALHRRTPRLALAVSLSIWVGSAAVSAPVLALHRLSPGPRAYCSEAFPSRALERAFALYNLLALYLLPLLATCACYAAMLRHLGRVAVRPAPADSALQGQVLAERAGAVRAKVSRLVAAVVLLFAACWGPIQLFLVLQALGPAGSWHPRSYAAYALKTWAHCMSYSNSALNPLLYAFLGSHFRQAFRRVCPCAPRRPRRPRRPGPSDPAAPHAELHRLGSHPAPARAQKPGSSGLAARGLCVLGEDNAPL

Compound | Specific Act. (intracellular Ca ion level-increasing activity, specific activity to Metastin (1-54)) (hOT7T175 [1]) | Specific Act. (EC50/MS10 EC50) (hOT7T175 [2])
CC(C)C[C@H](NC(=O)CNC(=O)[C@H](CC1CCCCC1)NC(=O)[C@H](CO)NC(=O)[C@H](CC(N)=O)NC(=O)[C@H](Cc1c[nH]c2ccccc12)NC(=O)[C@H](CC(N)=O)NC(=O)[C@@H](N)Cc1ccc(O)cc1)C(=O)N[C@@H](CCCNC(=N)N)C(=O)N[C@@H](Cc1ccccc1)C(N)=O [Compound No. 156, Tyr-Asn-Trp-Asn-Ser-Cha-Gly-Leu-Arg-Phe-NH2] (H-YNWNS[Cha]GLRF-NH2) | 2 | 0.9
CC(C)C[C@H](NC(=O)CNC(=O)[C@H](Cc1ccccc1)NC(=O)[C@H](CO)NC(=O)[C@H](CC(N)=O)NC(=O)[C@@H](Cc1c[nH]c2ccccc12)NC(=O)[C@H](CC(N)=O)NC(=O)[C@@H](N)Cc1ccc(O)cc1)C(=O)N[C@@H](CCCNC(=N)N)C(=O)N[C@@H](Cc1ccccc1)C(N)=O [Compound No. 40] | 30 | 1.6
CNC(=N)NCCC[C@H](NC(=O)[C@H](CC(C)C)NC(=O)CNC(=O)[C@H](Cc1ccccc1)NC(=O)[C@H](CO)NC(=O)[C@H](C)NC(=O)[C@H](Cc1c[nH]c2ccccc12)NC(=O)[C@H](CC(N)=O)NC(=O)[C@H](N)Cc1ccc(O)cc1)C(=O)N[C@@H](Cc1ccccc1)C(N)=O [Compound No. 210] (H-[dY]NWASFGL[Arg(Me)]F-NH2) | 1 | 9.3
CC(C)C[C@H](NC(=O)CNC(=O)[C@H](Cc1ccccc1)NC(=O)[C@H](CO)NC(=O)[C@H](CC(N)=O)NC(=O)[C@H](Cc1c[nH]c2ccccc12)NC(=O)[C@H](CC(N)=O)NC(=O)[C@H](N)Cc1ccc(O)cc1)C(=O)N[C@@H](CCCNC(=N)N)C(=O)N[C@@H](Cc1ccccc1)C(N)=S [Compound No. 146] (H-[dY]NWNSFGLR-X4) | 10 | 1.5
CNC(=N)NCCC[C@H](NC(=O)[C@H](CC(C)C)NC(=O)NNC(=O)[C@H](Cc1ccccc1)NC(=O)[C@H](CO)NC(=O)[C@H](CC(N)=O)NC(=O)[C@@H](NC(=O)[C@H](N)Cc1ccc(O)cc1)[C@@H](C)O)C(=O)N[C@@H](Cc1ccccc1)C(N)=O [Compound No. 241, D-Tyr-Thr-Asn-Ser-Phe-AzaGly-Leu-Arg(Me)-Phe-NH2] (H-[dY]TNSF[azaGly]L[Arg(Me)]F-NH2) | 1 | 5.3
CNC(=N)NCCC[C@H](NC(=O)[C@H](CC(C)C)NC(=O)CNC(=O)[C@H](Cc1ccccc1)NC(=O)[C@@H](NC(=O)[C@H](CC(N)=O)NC(=O)[C@H](Cc1c[nH]c2ccccc12)NC(=O)[C@H](CC(N)=O)NC(=O)[C@H](N)Cc1ccc(O)cc1)[C@@H](C)O)C(=O)N[C@@H](Cc1ccccc1)C(N)=O [Compound No. 211] (H-[dY]NWNTFGL[Arg(Me)]F-NH2) | 10 | 1.3
CNC(=N)NCCC[C@H](NC(=O)[C@H](CC(C)C)NC(=O)CNC(=O)[C@H](Cc1ccccc1)NC(=O)[C@H](C)NC(=O)[C@H](CC(N)=O)NC(=O)[C@H](Cc1c[nH]c2ccccc12)NC(=O)[C@H](CC(N)=O)NC(=O)[C@H](N)Cc1ccc(O)cc1)C(=O)N[C@@H](Cc1ccccc1)C(N)=O [Compound No. 212] (H-[dY]NWNAFGL[Arg(Me)]F-NH2) | 10 | 1.1
CNC(=N)NCCC[C@H](NC(=O)[C@H](CC(C)C)NC(=O)NNC(=O)[C@H](Cc1ccccc1)NC(=O)[C@H](CO)NC(=O)[C@H](CC(N)=O)NC(=O)[C@H](Cc1c[nH]c2ccccc12)NC(=O)[C@H](CC(N)=O)NC(=O)[C@H](N)Cc1ccc(O)cc1)C(=O)N[C@@H](Cc1ccccc1)C(N)=O [Compound No. 232, D-Tyr-Asn-Trp-Asn-Ser-Phe-AzaGly-Leu-Arg(Me)-Phe-NH2] | 3 | 3.9
CNC(=N)NCCC[C@H](NC(=O)[C@H](CC(C)C)NC(=O)NNC(=O)[C@H](Cc1ccccc1)NC(=O)[C@H](CO)NC(=O)[C@H](CC(N)=O)NC(=O)[C@H](C)NC(=O)[C@H](CC(N)=O)NC(=O)[C@H](N)Cc1ccc(O)cc1)C(=O)N[C@@H](Cc1ccccc1)C(N)=O [Compound No. 235, D-Tyr-Asn-Ala-Asn-Ser-Phe-AzaGly-Leu-Arg(Me)-Phe-NH2] (H-[dY]NANSF[azaGly]L[Arg(Me)]F-NH2) | 1 | –
CNC(=N)NCCC[C@H](NC(=O)[C@H](CC(C)C)NC(=O)NNC(=O)[C@H](Cc1ccccc1)NC(=O)[C@H](CO)NC(=O)[C@H](CC(N)=O)NC(=O)[C@H](CC1CCCCC1)NC(=O)[C@H](CC(N)=O)NC(=O)[C@H](N)Cc1ccc(O)cc1)C(=O)N[C@@H](Cc1ccccc1)C(N)=O [Compound No. 190, D-Tyr-Asn-Cha-Asn-Ser-Phe-AzaGly-Leu-Arg(Me)-Phe-NH2] (H-[dY]N[Cha]NSF[azaGly]L[Arg(Me)]F-NH2) | 10 | –
CC(C)C[C@H](NC(=O)CNC(=O)[C@H](Cc1ccccc1)NC(=O)[C@H](CO)NC(=O)[C@H](CC(N)=O)NC(=O)[C@H](Cc1c[nH]c2ccccc12)NC(=O)[C@H](CC(N)=O)NC(=O)[C@@H](N)Cc1ccc(O)cc1)C(=O)N[C@@H](CCCNC(=N)N)C(=O)N[C@@H](Cc1ccc(Cl)c(Cl)c1)C(N)=O [Compound No. 199] | 3 | –
CC(C)C[C@H](NC(=O)CNC(=O)[C@H](Cc1cccc2ccccc12)NC(=O)[C@H](CO)NC(=O)[C@H](CC(N)=O)NC(=O)[C@H](Cc1c[nH]c2ccccc12)NC(=O)[C@H](CC(N)=O)NC(=O)[C@@H](N)Cc1ccc(O)cc1)C(=O)N[C@@H](CCCNC(=N)N)C(=O)N[C@@H](Cc1ccccc1)C(N)=O [Compound No. 151, Tyr-Asn-Trp-Asn-Ser-Nal(1)-Gly-Leu-Arg-Phe-NH2] (H-YNWNS[1Nal]GLRF-NH2) | 1 | –
CNC(=N)NCCC[C@H](NC(=O)[C@H](CC(C)C)NC(=O)NNC(=O)[C@H](Cc1ccccc1)NC(=O)[C@H](CO)NC(=O)[C@H](CC(N)=O)NC(=O)[C@H](Cc1ccc(Cl)cc1)NC(=O)[C@H](CC(N)=O)NC(=O)[C@H](N)Cc1ccc(O)cc1)C(=O)N[C@@H](Cc1ccccc1)C(N)=O [Compound No. 249, D-Tyr-Asn-Phe(4Cl)-Asn-Ser-Phe-AzaGly-Leu-Arg(Me)-Phe-NH2] (H-[dY]N[Phe(4-Cl)]NSF[azaGly]L[Arg(Me)]F-NH2) | 1 | –
CNC(=N)NCCC[C@H](NC(=O)[C@H](CC(C)C)NC(=O)CNC(=O)[C@H](Cc1ccccc1)NC(=O)[C@H](CO)NC(=O)[C@H](CC(N)=O)NC(=O)[C@H](CO)NC(=O)[C@H](N)Cc1ccc(O)cc1)C(=O)N[C@@H](Cc1ccccc1)C(N)=O [Compound No. 226] (H-[dY]SNSFGL[Arg(Me)]F-NH2) | 1 | –
CC(C)C[C@H](NC(=O)CNC(=O)[C@H](Cc1ccc(F)cc1)NC(=O)[C@H](CO)NC(=O)[C@H](CC(N)=O)NC(=O)[C@H](Cc1c[nH]c2ccccc12)NC(=O)[C@H](CC(N)=O)NC(=O)[C@@H](N)Cc1ccc(O)cc1)C(=O)N[C@@H](CCCNC(=N)N)C(=O)N[C@@H](Cc1ccccc1)C(N)=O [Compound No. 154, Tyr-Asn-Trp-Asn-Ser-Phe(4F)-Gly-Leu-Arg-Phe-NH2] | 5 | –
CNC(=N)NCCC[C@H](NC(=O)[C@@H](NC(=O)CNC(=O)[C@H](Cc1ccccc1)NC(=O)[C@H](CO)NC(=O)[C@H](CC(N)=O)NC(=O)[C@H](Cc1c[nH]c2ccccc12)NC(=O)[C@H](CC(N)=O)NC(=O)[C@H](N)Cc1ccc(O)cc1)C(C)C)C(=O)N[C@@H](Cc1ccccc1)C(N)=O [Compound No. 213] (H-[dY]NWNSFGV[Arg(Me)]F-NH2) | 2 | –
CC(C)C[C@H](NC(=O)CNC(=O)[C@H](Cc1ccccc1)NC(=O)[C@H](CO)NC(=O)[C@H](CC(N)=O)NC(=O)[C@H](Cc1c[nH]c2ccccc12)NC(=O)[C@H](CC(N)=O)NC(=O)[C@@H](N)Cc1ccc(O)cc1)C(=O)N[C@@H](CCCNC(=N)N)C(=O)N[C@@H](Cc1ccc(F)c(F)c1)C(N)=O [Compound No. 198] | 10 | –
CC[C@H](C)[C@H](NC(=O)[C@H](CC(N)=O)NC(=O)[C@H](N)Cc1ccc(O)cc1)C(=O)N[C@@H](CC(N)=O)C(=O)N[C@@H](CO)C(=O)N[C@@H](Cc1ccccc1)C(=O)NNC(=O)N[C@@H](CC(C)C)C(=O)N[C@@H](CCCNC(=N)NC)C(=O)N[C@@H](Cc1ccccc1)C(N)=O [Compound No. 233, D-Tyr-Asn-Ile-Asn-Ser-Phe-AzaGly-Leu-Arg(Me)-Phe-NH2] (H-[dY]NINSF[azaGly]L[Arg(Me)]F-NH2) | 1 | –
CC(C)C[C@H](NC(=O)CNC(=O)[C@H](Cc1ccccc1)NC(=O)[C@H](CO)NC(=O)[C@H](CC(N)=O)NC(=O)[C@H](Cc1c[nH]c2ccccc12)NC(=O)[C@H](CC(N)=O)NC(=O)[C@@H](N)Cc1ccc(O)cc1)C(=O)N[C@@H](CCCNC(=N)N)C(=O)N[C@@H](Cc1ccc([N+](=O)[O-])cc1)C(N)=O [Compound No. 132] | 10 | –
CC(C)C[C@H](NC(=O)CNC(=O)[C@H](Cc1ccccc1)NC(=O)[C@H](CO)NC(=O)[C@H](CC(N)=O)NC(=O)[C@H](Cc1cn(C=O)c2ccccc12)NC(=O)[C@H](CC(N)=O)NC(=O)[C@@H](N)Cc1ccc(O)cc1)C(=O)N[C@@H](CCCNC(=N)N)C(=O)N[C@@H](Cc1ccc(C#N)cc1)C(N)=O [Compound No. 78, Tyr-Asn-Trp(For)-Asn-Ser-Phe-Gly-Leu-Arg-Phe(4CN)-NH2] | 10 | –
